In series [1] the test system is amylase. Briefly: Amylase test in vitro (amylase inhibitor unit). In kind it is biochemical. To be noted: 1 AIU = amount of inhibitor for about 50% inhibition; starch substrate, pH 6.9, 35° C. The method, then: The amylase activity of the novel amino sugar compound of the present invention was measured by the following method.
Amylase inhibitor unit (1 AIU) is defined as the amount of inhibitor required to control the amylase unit by about 50%. The amylase unit (AU) is the value of enzyme to divide 1μ equivalent of glucoside bond in starch for 1 minute under the following test conditions. The μ equivalent of this divided bond is determined as reduced μ equivalent of sugar formed by Kurie's method which uses dinitrosalicylic acid. Standard curve using maltose is given as μ equivalent of maltose equivalent. A testing solution (0-20 μl) in 0.4 ml of a solution (pH 6.9) containing 0.001 mol of CaCl2, 0-10 μg of the inhibitor and 0.02 mol of sodium glycerophosphate is added to 0.1 ml of an amylase solution (20 to 22 AU/ml). This mixture is equilibrated in a water bath of 35° C. for about 10-20 minutes. Then, this is cultured at 35° C. for 5 minutes together with 0.5 ml of a 1% starch solution (soluble starch No. 1,252 from Marck, Darmstadt) preheated to 35° C. and thereafter 1 ml of dinitrosalicylic acid reagent (P. Bernfeld, Colowick-Kaplan, Meth. Enzymol., 1, 149) is added thereto. For developing color, the batch is heated in a boiling water bath for 5 minutes and then cooled and 10 ml of distilled water is added thereto. Absorbance of 540 nm is measured in comparison with blanks prepared in the same manner without using amylase. For evaluation, amylase activity which is still effective after addition of inhibitor is read from previously recorded amylase standard curve and inhibiting rate (%) of the amylase used is calculated from said amylase activity. The inhibiting rate is plotted as function of the quotient: [formula] Inhibiting point of 50% is read from this curve and is converted to AIU/mg of the inhibitor.

Series [2] is described as follows: Solubility in solvents. In kind it is physicochemical.
Setting [3] is: acetone, ethyl acetate, chloroform.
[4] abbreviates: water, methanol, dimethylformamide, dimethylsulfoxide, hot ethanol.

`OCC1=CC(NC2C(CO)OC(O[C@H]3[C@H](O)[C@@H](O)C(O[C@H]4[C@H](O)[C@@H](O)C(O[C@H]5[C@H](O)[C@@H](O)C(O)O[C@@H]5CO)O[C@@H]4CO)O[C@@H]3CO)C(O)C2O)C(O)C(O)C1O` (some centres unmarked) [[I] (wherein n=3, m=0)]: the Amylase inhibitor unit in series [1] is on record as 1.4×10^3 AIU/mg.

As for `OCC1=CC(NC2C(CO)OC(O[C@H]3[C@H](O)[C@@H](O)C(O[C@H]4[C@H](O)[C@@H](O)C(O)O[C@@H]4CO)O[C@@H]3CO)C(O)C2O)C(O)C(O)C1OC1O[C@H](CO)[C@@H](O)[C@H](O)[C@H]1O` (some centres unmarked) [[I] (wherein n=2, m=1)], the Amylase inhibitor unit in series [1] is listed as 1.2×10^3 AIU/mg.

Regarding `OCC1=CC(NC2C(CO)OC(O[C@H]3[C@H](O)[C@@H](O)C(O[C@H]4[C@H](O)[C@@H](O)C(O)O[C@@H]4CO)O[C@@H]3CO)C(O)C2O)C(O)C(O)C1O` (some centres unmarked) [[I] (wherein n=2 and m=0)], the Amylase inhibitor unit in series [1] is reported as 3.6×10^2 AIU/mg. The Solubility in solvents entry in series [2] (setting [3]) is given as “insoluble”; in series [2] (setting [4]) it was “soluble”.

As to `OCC1=CC(NC2C(CO)OC(O[C@H]3[C@H](O)[C@@H](O)C(O)O[C@@H]3CO)C(O)C2O)C(O)C(O)C1O` (some centres unmarked) [[I] (wherein n=1 and m=0)], the Amylase inhibitor unit in series [1] is 3.4×10^2 AIU/mg. Further, the Solubility in solvents entry in series [2] (setting [3]) is reported as “insoluble”; in series [2] (setting [4]), “soluble”.

The record behind these values is US4254256A, “Amino sugar compound” (Toyo Jozo company, Ltd., priority 1977, dated 1981).
